Each structure is given as a SMILES string.

This experiment addresses T1, ULK2 (Homo sapiens, UniProt Q8IYT8).
T1 construct: purchased Thermo Fisher Scientific (Life Technologies) SelectScreen
The experiment can be described thus: SelectScreen LanthaScreen. The experiment is classed as binding. The conditions noted are these: read-out: % displacement. The essentials: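 Percent values come from Thermo SelectScreen profiling of NU5455, combining activity and binding assays. CSF1R was run in Z'LYTE format at Km app ATP, and CAMK1 in Adapta format with ATP listed at 10.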
In general terms: Time-resolved FRET reads energy transfer from a long-lived donor to a nearby acceptor.

T1 sequence (Q8IYT8 whole entry): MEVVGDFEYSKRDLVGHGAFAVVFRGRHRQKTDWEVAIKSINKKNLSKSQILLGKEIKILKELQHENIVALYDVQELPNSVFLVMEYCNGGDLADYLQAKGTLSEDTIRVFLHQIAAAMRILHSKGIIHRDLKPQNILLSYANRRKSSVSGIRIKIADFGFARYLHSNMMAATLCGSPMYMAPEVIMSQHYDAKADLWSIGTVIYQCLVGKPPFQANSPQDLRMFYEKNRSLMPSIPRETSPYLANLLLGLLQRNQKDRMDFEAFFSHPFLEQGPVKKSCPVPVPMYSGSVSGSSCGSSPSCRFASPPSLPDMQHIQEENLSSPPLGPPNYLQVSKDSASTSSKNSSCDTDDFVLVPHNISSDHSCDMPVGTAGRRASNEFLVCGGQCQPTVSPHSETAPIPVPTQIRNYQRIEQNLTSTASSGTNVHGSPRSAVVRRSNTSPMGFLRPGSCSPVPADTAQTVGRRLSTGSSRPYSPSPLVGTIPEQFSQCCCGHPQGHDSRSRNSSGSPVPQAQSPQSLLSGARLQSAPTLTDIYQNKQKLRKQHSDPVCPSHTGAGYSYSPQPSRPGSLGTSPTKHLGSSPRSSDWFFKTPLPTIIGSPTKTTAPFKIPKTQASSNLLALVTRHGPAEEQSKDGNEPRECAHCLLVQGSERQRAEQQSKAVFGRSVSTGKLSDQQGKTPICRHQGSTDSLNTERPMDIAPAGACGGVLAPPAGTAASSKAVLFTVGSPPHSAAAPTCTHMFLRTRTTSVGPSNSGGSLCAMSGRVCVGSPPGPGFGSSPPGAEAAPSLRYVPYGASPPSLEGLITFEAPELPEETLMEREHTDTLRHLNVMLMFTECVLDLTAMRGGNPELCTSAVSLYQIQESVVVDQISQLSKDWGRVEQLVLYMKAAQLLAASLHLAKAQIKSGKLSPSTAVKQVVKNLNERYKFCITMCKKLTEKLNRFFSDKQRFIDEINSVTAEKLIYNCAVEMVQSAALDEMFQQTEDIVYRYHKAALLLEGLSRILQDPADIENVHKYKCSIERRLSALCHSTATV

Consider `CN(C(=O)CN1CCOCC1)c1ccc2sc3c(-c4cccc5c(=O)cc(N6CC7CCC(C6)O7)oc45)cccc3c2c1` [NU5455], for which the inhibition at 1 µM came out at 0.9%.

The values above are taken from paper PMC6934184, “Selective DNA-PKcs inhibition extends the therapeutic index of localized radiotherapy and chemotherapy” (The Journal of Clinical Investigation, 2019).
